# According to patent US20210261621A1, “Preparation of Dilipid Polymixins and Use Thereof as Antimicrobial Adjuvants” (priority 2018, published 2021):
# Like-named read-outs stand apart in the source and are kept apart here. Positions of bridges follow the written chain, without caps; N, C: chain ends. Non-standard residues stand in square brackets, D forms with d. Residues, ends and D or L forms follow the SMILES beside them. *: point of attachment. Dab = NCC[C@H](N)C(=O)O; Butyryl = CCCC(=O)*
# Columns and labels:
# [1] = test system: P. aeruginosa PAO1; design: MICDrug / MICDrug in combo / MIC of adjuvant in combo: unit not given beside the values
# [2] = test system: P. aeruginosa CANWARD-2011 96846; format: cell-based, Pseudomonas aeruginosa
# Summary of the method: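 CLSI microdilution, MHB, 18 h at 37° C. against ~5×10^5 CFU/mL inoculum; patient isolates sourced from […] surveillance, reference strain from ATCC.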
# [3] = test system: pig erythrocytes; experiment: Hemolytic assay
# Method: The ability of the compounds to lyse eukaryotic red blood cells was measured by the amount of hemoglobin released upon incubation with pig erythrocytes, following a published protocol [30]. Briefly, fresh pig blood (generously provided by Dr. Richard Hodges, Director of Animal Care and Veterinary Services of the University of Manitoba) drawn from a pig's antecubital vein was centrifuged at 1000 g for 5 min at 4° C., washed with phosphate-buffered saline (PBS) three times, and re-suspended in the same buffer, consecutively. Compounds at study were 2-fold serially diluted in PBS on a 96-well plate and mixed with equal volumes of erythrocyte solution. Post 1 h incubation at 37° C., the intact cells were pelleted by centrifugation at 1000 g for 5 min at 4° C. Resulting supernatant was then transferred to a new 96-well plate. The hemoglobin released was then measured via an EMax Plus microplate reader (Molecular Devices, USA) at 570 nm wavelength. Erythrocytes in PBS with or without 0.1% Triton X-100 were used as positive or negative control, respectively.
compound,measurement,setting,value
"CCCC(=O)NCC[C@H](NC(=O)CCC)C(=O)N[C@H](C(=O)N[C@@H](CCN)C(=O)N[C@H]1CCNC(=O)[C@H]([C@@H](C)O)NC(=O)[C@H](CCN)NC(=O)[C@H](CCN)NC(=O)[C@H](CC(C)C)NC(=O)[C@@H](Cc2ccccc2)NC(=O)[C@H](CCN)NC1=O)[C@@H](C)O [Compound 1, Dibutyric Acid (Di-C4) Polymyxin] (Butyryl-[Dab](Butyryl)T[Dab][Dab][Dab][dF]L[Dab][Dab]T; lactam 4-C)","MIC of adjuvant alone (MIC1, MIC2, MIC3, MIC4, MIC5, MICPMBN)","[1]; adjuvant alone, one value per checkerboard, in µg/mL",128
same,Interpretation,[1]; combination with Aztreonam,"Synergy (An FIC index of ≤0.5, 0.5<x≤4, or >4 denotes for synergistic, additive or antagonistic interaction, respectively)"
same,Interpretation,[1]; combination with Ceftazidime,"Synergy (An FIC index of ≤0.5, 0.5<x≤4, or >4 denotes for synergistic, additive or antagonistic interaction, respectively)"
same,Interpretation,[1]; combination with Chloramphenicol,"Synergy (An FIC index of ≤0.5, 0.5<x≤4, or >4 denotes for synergistic, additive or antagonistic interaction, respectively)"
same,Interpretation,[1]; combination with Ciprofloxacin,"Synergy (An FIC index of ≤0.5, 0.5<x≤4, or >4 denotes for synergistic, additive or antagonistic interaction, respectively)"
same,Interpretation,[1]; combination with Clindamycin,"Synergy (An FIC index of ≤0.5, 0.5<x≤4, or >4 denotes for synergistic, additive or antagonistic interaction, respectively)"
same,Interpretation,[1]; combination with Doripenem,"Additive (An FIC index of ≤0.5, 0.5<x≤4, or >4 denotes for synergistic, additive or antagonistic interaction, respectively)"
same,Interpretation,[1]; combination with Doxycycline,"Synergy (An FIC index of ≤0.5, 0.5<x≤4, or >4 denotes for synergistic, additive or antagonistic interaction, respectively)"
same,Interpretation,[1]; combination with Fosfomycin,"Synergy (An FIC index of ≤0.5, 0.5<x≤4, or >4 denotes for synergistic, additive or antagonistic interaction, respectively)"
same,Interpretation,[1]; combination with Gentamicin,"Additive (An FIC index of ≤0.5, 0.5<x≤4, or >4 denotes for synergistic, additive or antagonistic interaction, respectively)"
same,Interpretation,[1]; combination with Linezolid,"Synergy (An FIC index of ≤0.5, 0.5<x≤4, or >4 denotes for synergistic, additive or antagonistic interaction, respectively)"
same,Interpretation,[1]; combination with Meropenem,"Synergy (An FIC index of ≤0.5, 0.5<x≤4, or >4 denotes for synergistic, additive or antagonistic interaction, respectively)"
same,Interpretation,[1]; combination with Minocycline,"Synergy (An FIC index of ≤0.5, 0.5<x≤4, or >4 denotes for synergistic, additive or antagonistic interaction, respectively)"
same,Interpretation,[1]; combination with Moxifloxacin,"Synergy (An FIC index of ≤0.5, 0.5<x≤4, or >4 denotes for synergistic, additive or antagonistic interaction, respectively)"
same,Interpretation,[1]; combination with Novobiocin,"Synergy (An FIC index of ≤0.5, 0.5<x≤4, or >4 denotes for synergistic, additive or antagonistic interaction, respectively)"
same,Interpretation,[1]; combination with Piperacillin,"Additive (An FIC index of ≤0.5, 0.5<x≤4, or >4 denotes for synergistic, additive or antagonistic interaction, respectively)"
same,Interpretation,[1]; combination with Pleuromutilin,"Synergy (An FIC index of ≤0.5, 0.5<x≤4, or >4 denotes for synergistic, additive or antagonistic interaction, respectively)"
same,Interpretation,[1]; combination with Rifampicin,"Synergy (An FIC index of ≤0.5, 0.5<x≤4, or >4 denotes for synergistic, additive or antagonistic interaction, respectively)"
same,Interpretation,[1]; combination with Streptomycin,"Additive (An FIC index of ≤0.5, 0.5<x≤4, or >4 denotes for synergistic, additive or antagonistic interaction, respectively)"
same,Interpretation,[1]; combination with Tobramycin,"Additive (An FIC index of ≤0.5, 0.5<x≤4, or >4 denotes for synergistic, additive or antagonistic interaction, respectively)"
same,Interpretation,[1]; combination with Trimethoprim,"Synergy (An FIC index of ≤0.5, 0.5<x≤4, or >4 denotes for synergistic, additive or antagonistic interaction, respectively)"
same,Interpretation,[1]; combination with Vancomycin,"Synergy (An FIC index of ≤0.5, 0.5<x≤4, or >4 denotes for synergistic, additive or antagonistic interaction, respectively)"
same,MIC of adjuvant in combo,[1]; in combination with Aztreonam,(32)
same,MIC of adjuvant in combo,[1]; in combination with Ceftazidime,(32)
same,MIC of adjuvant in combo,[1]; in combination with Chloramphenicol,(4)
same,MIC of adjuvant in combo,[1]; in combination with Ciprofloxacin,(32)
same,MIC of adjuvant in combo,[1]; in combination with Clindamycin,(8)
same,MIC of adjuvant in combo,[1]; in combination with Doripenem,(32)
same,MIC of adjuvant in combo,[1]; in combination with Doxycycline,(2)
same,MIC of adjuvant in combo,[1]; in combination with Fosfomycin,(16)
same,MIC of adjuvant in combo,[1]; in combination with Gentamicin,(0.0625)
same,MIC of adjuvant in combo,[1]; in combination with Linezolid,(4)
same,MIC of adjuvant in combo,[1]; in combination with Meropenem,(32)
same,MIC of adjuvant in combo,[1]; in combination with Minocycline,(2)
same,MIC of adjuvant in combo,[1]; in combination with Moxifloxacin,(16)
same,MIC of adjuvant in combo,[1]; in combination with Novobiocin,(8)
same,MIC of adjuvant in combo,[1]; in combination with Piperacillin,(32)
same,MIC of adjuvant in combo,[1]; in combination with Pleuromutilin,(8)
same,MIC of adjuvant in combo,[1]; in combination with Rifampicin,(2)
same,MIC of adjuvant in combo,[1]; in combination with Streptomycin,(32)
same,MIC of adjuvant in combo,[1]; in combination with Tobramycin,(0.5)
same,MIC of adjuvant in combo,[1]; in combination with Trimethoprim,(16)
same,MIC of adjuvant in combo,[1]; in combination with Vancomycin,(32)
same,MIC,[2],>128 µg/mL
colistin [reference compound],% Hemolysis at 512 μg/mL of polymyxin,"[3]; 512 μg/mL, pig erythrocytes, 1 h at 37° C.",1.6 ± 0.5%
same,"MHC5, minimum concentration that resulted in 5% red blood cell hemolysis","[3]; pig erythrocytes, 1 h at 37° C.",>512 µg/mL
same,hemolytic activity,[3]; up to the highest concentration tested of 512 μg/mL,no hemolytic activity
